Test results reported in patent US20230355547A1, “STABILIZATION OF VITAMIN A IN A NUTRITIONAL SOLUTION” (BAXTER INTERNATIONAL INC., priority 2020, published 2023).

Test: Impact of dissolved oxygen on the stability of vitamin A in a 10% soybean lipid emulsion (Example 4)
Format: physicochemical
Details: more than 6 months at 40° C., independently of light exposure
Source text: Accordingly, at an oxygen level of about 0.300 ppm vitamin A after 6 months is no longer considered stable, i.e. recovery drops below 80%.
Various methods can be used to determine the DO content of a given solution. Generally, electrochemical or optical sensors are used for determining the DO concentration according to the invention. A preferred method comprises using a fiber-optic oxygen meter such as MICROX TX3, which is a single-channel, temperature-compensated oxygen meter with fiber-optic trace oxygen microsensors based on a glass fiber (e.g. 140 μm). […] For data visualization during measurements, the oxygen meter is connected to a LCD & Data-Logger Unit.
The stability of vitamin A was tested in a 10% soybean lipid emulsion having a peroxide level of below 5 milliequivalents (mEq) O2/kg. The lipid emulsion contained vitamin A in a concentration of 1 dd/25 mL, as well as vitamin E in a concentration of 1 dd/25 mL and the pH was adjusted to 5.9 with HCl.
FIG. 2 depicts the dependency of vitamin A recovery on the presence of dissolved oxygen.

In the case of vitamin A, the “stability in the presence of oxygen of above 0.3 ppm” value is reported as “not stable”.
